pIC50: −log10 of the molar value. Activity calls are given as the source filed them. The rule behind the calls is not given here.
Key:
[1] = target: T1, DNA topoisomerase 2-alpha (Homo sapiens, UniProt P11388); assay: Inhibition of human topoisomerase 2-alpha assessed as reduction in VP-16 induced enzyme-DNA cleavage complex formation by measuring linear DNA production; settings: dose 10-100 µM
[2] = target: T1, DNA topoisomerase 2-alpha; assay: Inhibition of human topoisomerase 2-alpha assessed as DNA intercalation at 100 to 200 uM using pBR322 DNA as substrate measured after 30 mins by agarose gel electrophoresis analysis; settings: dose 100-200 µM
[3] = Selectivity index, ratio of IC50 for human HL-7702 cells to IC50 for human HepG2 cells; format: toxicity; settings: HL-7702 cells versus HepG2 cells, read-out: Ratio IC50
[4] = target: T1, DNA topoisomerase 2-alpha; assay: Inhibition of human topoisomerase 2-alpha assessed as reduction in relaxation of pBR322 DNA at 100 uM measured after 30 mins by agarose gel electrophoresis method relative to control
HepG2 [5] = assay: Induction of apoptosis in human HepG2 cells assessed as necrotic cells at 1 uM incubated for 24 hrs by annexin-V FITC and PI staining based flow cytometry analysis (reference value: 0.2%); format: functional
Homo sapiens [6] = organism: Homo sapiens; assay: Selectivity index, ratio of IC50 for human CCL-226 cells to IC50 for human HeLa cells
HepG2 [7] = assay: Induction of apoptosis in human HepG2 cells assessed as early apoptotic cells at 1 uM incubated for 24 hrs by annexin-V FITC and PI staining based flow cytometry analysis (reference value: 3.7%); format: functional
HepG2 [8] = assay: Antiproliferative activity against human HepG2 cells incubated for 72 hrs by CCK8 assay; format: functional, cell-based; settings: Homo sapiens, HepG2, 72 h
HepG2 [9] = assay: Induction of apoptosis in human HepG2 cells assessed as viable cells at 1 uM incubated for 24 hrs by annexin-V FITC and PI staining based flow cytometry analysis (reference value: 93.8%); format: functional; settings: read-out: Activity
A549 = assay: Antiproliferative activity against human A549 cells incubated for 72 hrs by CCK8 assay; format: functional, cell-based; settings: A549, 72 h
[10] = Selectivity index, ratio of IC50 for human HL-7702 cells to IC50 for human A549 cells; format: toxicity; settings: HL-7702 cells versus A549 cells, read-out: Ratio IC50
[11] = target: T1, DNA topoisomerase 2-alpha; assay: Inhibition of human topoisomerase 2-alpha using pBR322 DNA as substrate incubated for 30 mins in presence of 0.5 to 5 mM ATP (reference value: 3.4 microM)
[12] = Selectivity index, ratio of IC50 for human HL-7702 cells to IC50 for human MDA-MB-231 cells; format: toxicity; settings: HL-7702 cells versus MDA-MB-231 cells, read-out: Ratio IC50
HepG2 [13] = assay: Induction of apoptosis in human HepG2 cells assessed as viable cells at 0.5 uM incubated for 24 hrs by annexin-V FITC and PI staining based flow cytometry analysis (reference value: 93.8%); format: functional; settings: read-out: Activity
HeLa = assay: Antiproliferative activity against human HeLa cells incubated for 72 hrs by CCK8 assay; format: functional, cell-based
HepG2 [14] = assay: Induction of cell cycle arrest in human HepG2 cells assessed as accumulation of cells at G2/M phase at 0.5 uM incubated for 24 hrs by PI staining based flow cytometry analysis (reference value: 17.5%); format: functional
HepG2 [15] = assay: Induction of cell cycle arrest in human HepG2 cells assessed as accumulation of cells at G1 phase at 0.5 uM incubated for 24 hrs by PI staining based flow cytometry analysis (reference value: 54%); format: functional
Homo sapiens [16] = organism: Homo sapiens; assay: Selectivity index, ratio of IC50 for human CCL-226 cells to IC50 for human HCT-116 cells
HCT-116 = assay: Antiproliferative activity against human HCT-116 cells incubated for 72 hrs by CCK8 assay; format: functional, cell-based; settings: HCT-116, 72 h
HepG2 [17] = assay: Induction of apoptosis in human HepG2 cells assessed as early apoptotic cells at 0.5 uM incubated for 24 hrs by annexin-V FITC and PI staining based flow cytometry analysis (reference value: 3.7%); format: functional
[18] = Antiproliferative activity against human HL7702 cells incubated for 72 hrs by CCK8 assay; format: toxicity, cell-based; settings: HL7702 (L02) cells
Homo sapiens [19] = organism: Homo sapiens; assay: Selectivity index, ratio of IC50 for human CCL-226 cells to IC50 for human A549 cells
HepG2 [20] = assay: Induction of cell cycle arrest in human HepG2 cells assessed as accumulation of cells at S phase at 0.5 uM incubated for 24 hrs by PI staining based flow cytometry analysis (reference value: 28.2%); format: functional
HepG2 [21] = assay: Induction of cell cycle arrest in human HepG2 cells assessed as accumulation of cells at S phase at 1 uM incubated for 24 hrs by PI staining based flow cytometry analysis (reference value: 28.2%); format: functional
[22] = Antiproliferative activity against human CCL-226 cells incubated for 72 hrs by CCK8 assay; format: toxicity, cell-based
[23] = Selectivity index, ratio of IC50 for human BEAS-2B cells to IC50 for human PC-3 cells; format: toxicity; settings: BEAS-2B cells versus PC-3 cells, read-out: Ratio IC50
[24] = Selectivity index, ratio of IC50 for human BEAS-2B cells to IC50 for human HepG2 cells; format: toxicity; settings: BEAS-2B cells versus HepG2 cells, read-out: Ratio IC50
[25] = Toxicity in C57BL/6J mouse assessed as change in body weight at 500 mg/kg administered via gavage twice at day 1 and measured for 7 days; format: organism-based; settings: in vivo, po, 168 h, time 7 day
HepG2 [26] = assay: Induction of apoptosis in human HepG2 cells assessed as late apoptotic cells at 0.5 uM incubated for 24 hrs by annexin-V FITC and PI staining based flow cytometry analysis (reference value: 2.3%); format: functional
[27] = Selectivity index, ratio of IC50 for human HL-7702 cells to IC50 for human HCT-116 cells; format: toxicity; settings: HL-7702 cells versus HCT-116 cells, read-out: Ratio IC50
[28] = target: T1, DNA topoisomerase 2-alpha; assay: Poison activity at human topoisomerase 2-alpha assessed as linear DNA formation at 100 to 200 microM; settings: dose 100-200 µM
Homo sapiens [29] = organism: Homo sapiens; assay: Selectivity index, ratio of IC50 for human CCL-226 cells to IC50 for human MDA-MB-231 cells
[30] = Selectivity index, ratio of IC50 for human BEAS-2B cells to IC50 for human A549 cells; format: toxicity; settings: BEAS-2B cells versus A549 cells, read-out: Ratio IC50
HepG2 [31] = assay: Induction of apoptosis in human HepG2 cells assessed as late apoptotic cells at 1 uM incubated for 24 hrs by annexin-V FITC and PI staining based flow cytometry analysis (reference value: 2.3%); format: functional
[32] = Selectivity index, ratio of IC50 for human BEAS-2B cells to IC50 for human MDA-MB-231 cells; format: toxicity; settings: BEAS-2B cells versus MDA-MB-231 cells, read-out: Ratio IC50
PC-3 = assay: Antiproliferative activity against human PC-3 cells incubated for 72 hrs by CCK8 assay; format: functional, cell-based; settings: PC-3, 72 h
MDA-MB-231 = assay: Antiproliferative activity against human MDA-MB-231 cells incubated for 72 hrs by CCK8 assay; format: functional, cell-based; settings: Homo sapiens, MDA-MB-231, 72 h
[33] = target: T1, DNA topoisomerase 2-alpha; assay: Inhibition of human topoisomerase 2-alpha using pBR322 DNA as substrate incubated for 1 hr in presence of ATP by malachite green phosphate method

T1 sequence (P11388 whole entry): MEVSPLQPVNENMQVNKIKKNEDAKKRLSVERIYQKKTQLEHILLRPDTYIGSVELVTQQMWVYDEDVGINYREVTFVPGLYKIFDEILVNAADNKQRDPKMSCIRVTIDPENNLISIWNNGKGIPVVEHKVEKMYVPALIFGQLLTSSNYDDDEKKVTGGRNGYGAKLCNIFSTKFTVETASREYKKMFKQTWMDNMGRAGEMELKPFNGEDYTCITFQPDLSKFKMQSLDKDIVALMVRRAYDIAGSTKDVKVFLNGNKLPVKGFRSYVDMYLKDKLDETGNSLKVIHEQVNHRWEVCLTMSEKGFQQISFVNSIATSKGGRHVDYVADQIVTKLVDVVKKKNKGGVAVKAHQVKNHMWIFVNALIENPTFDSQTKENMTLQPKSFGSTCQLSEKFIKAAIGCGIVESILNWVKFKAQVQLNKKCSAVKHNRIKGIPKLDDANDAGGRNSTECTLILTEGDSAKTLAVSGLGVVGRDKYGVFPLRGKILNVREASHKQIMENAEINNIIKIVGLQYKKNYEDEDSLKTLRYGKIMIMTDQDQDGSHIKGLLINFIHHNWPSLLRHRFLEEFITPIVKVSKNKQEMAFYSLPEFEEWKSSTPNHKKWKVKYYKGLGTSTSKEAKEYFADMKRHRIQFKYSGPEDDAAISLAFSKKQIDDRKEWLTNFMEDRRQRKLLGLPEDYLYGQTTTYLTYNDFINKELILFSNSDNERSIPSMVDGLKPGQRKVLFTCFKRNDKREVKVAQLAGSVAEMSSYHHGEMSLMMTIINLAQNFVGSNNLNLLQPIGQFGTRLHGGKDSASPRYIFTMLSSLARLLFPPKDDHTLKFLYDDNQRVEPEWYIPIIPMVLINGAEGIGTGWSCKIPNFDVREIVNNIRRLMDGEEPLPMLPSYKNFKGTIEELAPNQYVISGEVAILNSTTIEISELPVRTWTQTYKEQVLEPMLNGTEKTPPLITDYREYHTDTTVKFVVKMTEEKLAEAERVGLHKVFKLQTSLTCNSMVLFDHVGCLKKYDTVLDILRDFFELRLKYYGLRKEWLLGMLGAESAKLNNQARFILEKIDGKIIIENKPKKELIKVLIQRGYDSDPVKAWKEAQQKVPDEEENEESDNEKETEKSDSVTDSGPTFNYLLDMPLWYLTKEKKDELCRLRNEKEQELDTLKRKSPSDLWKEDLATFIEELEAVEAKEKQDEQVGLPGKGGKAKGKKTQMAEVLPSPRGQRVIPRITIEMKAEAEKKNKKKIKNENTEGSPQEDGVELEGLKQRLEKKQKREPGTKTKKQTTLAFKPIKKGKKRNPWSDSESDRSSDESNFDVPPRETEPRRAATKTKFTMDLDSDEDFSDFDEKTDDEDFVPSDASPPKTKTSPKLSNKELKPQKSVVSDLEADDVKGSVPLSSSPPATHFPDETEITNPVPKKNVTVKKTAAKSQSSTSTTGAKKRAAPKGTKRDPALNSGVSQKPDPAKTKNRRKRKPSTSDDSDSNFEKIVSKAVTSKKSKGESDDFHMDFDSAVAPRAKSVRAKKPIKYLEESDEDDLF

inhibition [1]: Dose-Dependent Effect
inhibition [2]: inactive
inhibition [4]: 82.1%
Ratio IC50 (Homo sapiens [6]): > 52.1
pIC50 (HepG2 [8]): 6.52
pIC50 (A549): 6.52
pIC50 [11]: 4.87
pIC50 (HeLa): 7.00
Ratio IC50 (Homo sapiens [16]): > 52.1
pIC50 (HCT-116): 6.70
Ratio IC50 (Homo sapiens [19]): > 52.1
Ratio IC50 (Homo sapiens [29]): > 52.1
pIC50 (PC-3): 6.52
pIC50 (MDA-MB-231): 6.70
inhibition [33]: Dose-Dependent Effect
Structure (SMILES): O=C(CCc1ccccc1)Nc1ccc(-c2ccc3cc(O)ccc3c2)cc1
selectivity ratio [3]: > 52.1
Activity (HepG2 [5]): 0.3%
Activity (HepG2 [7]): 24.5%
viability at 1 µM (HepG2 [9]): 29.2%
selectivity ratio [10]: > 52.1
selectivity ratio [12]: > 52.1
viability at 0.5 µM (HepG2 [13]): 72.5%
Activity (HepG2 [14]): 48.9%
Activity (HepG2 [15]): 19%
Activity (HepG2 [17]): 14%
IC50 at 72 h [18]: 16700 nM
Activity (HepG2 [20]): 32%
Activity (HepG2 [21]): 11.2%
IC50 at 72 h [22]: > 50000 nM
selectivity ratio [23]: > 52.1
selectivity ratio [24]: > 52.1
Activity [25]: Non-Toxic
Activity (HepG2 [26]): 13.4%
selectivity ratio [27]: > 52.1
Activity [28]: inactive
selectivity ratio [30]: > 52.1
Activity (HepG2 [31]): 46.1%
selectivity ratio [32]: > 52.1
